How the values were obtained:
[1] = biological target: T1, Interstitial collagenase (Homo sapiens, UniProt P03956)
T1 sequence (P03956 whole entry): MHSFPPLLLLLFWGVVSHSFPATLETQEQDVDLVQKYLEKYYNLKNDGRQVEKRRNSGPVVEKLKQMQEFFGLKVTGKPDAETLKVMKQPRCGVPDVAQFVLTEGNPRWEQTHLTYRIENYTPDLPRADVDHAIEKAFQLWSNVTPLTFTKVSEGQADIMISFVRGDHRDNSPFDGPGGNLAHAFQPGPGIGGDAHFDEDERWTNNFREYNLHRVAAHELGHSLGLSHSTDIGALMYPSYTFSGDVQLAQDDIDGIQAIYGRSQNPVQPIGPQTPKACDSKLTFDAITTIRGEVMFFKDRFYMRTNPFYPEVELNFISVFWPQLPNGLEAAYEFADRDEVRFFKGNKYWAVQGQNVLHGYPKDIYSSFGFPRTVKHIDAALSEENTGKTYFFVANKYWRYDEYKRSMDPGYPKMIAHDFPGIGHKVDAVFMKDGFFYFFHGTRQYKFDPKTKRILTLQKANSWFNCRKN

[2] = biological target: T2, Disintegrin and metalloproteinase domain-containing protein 17 (Homo sapiens, UniProt P78536)
T2 sequence (P78536 whole entry, the tested form may be a part): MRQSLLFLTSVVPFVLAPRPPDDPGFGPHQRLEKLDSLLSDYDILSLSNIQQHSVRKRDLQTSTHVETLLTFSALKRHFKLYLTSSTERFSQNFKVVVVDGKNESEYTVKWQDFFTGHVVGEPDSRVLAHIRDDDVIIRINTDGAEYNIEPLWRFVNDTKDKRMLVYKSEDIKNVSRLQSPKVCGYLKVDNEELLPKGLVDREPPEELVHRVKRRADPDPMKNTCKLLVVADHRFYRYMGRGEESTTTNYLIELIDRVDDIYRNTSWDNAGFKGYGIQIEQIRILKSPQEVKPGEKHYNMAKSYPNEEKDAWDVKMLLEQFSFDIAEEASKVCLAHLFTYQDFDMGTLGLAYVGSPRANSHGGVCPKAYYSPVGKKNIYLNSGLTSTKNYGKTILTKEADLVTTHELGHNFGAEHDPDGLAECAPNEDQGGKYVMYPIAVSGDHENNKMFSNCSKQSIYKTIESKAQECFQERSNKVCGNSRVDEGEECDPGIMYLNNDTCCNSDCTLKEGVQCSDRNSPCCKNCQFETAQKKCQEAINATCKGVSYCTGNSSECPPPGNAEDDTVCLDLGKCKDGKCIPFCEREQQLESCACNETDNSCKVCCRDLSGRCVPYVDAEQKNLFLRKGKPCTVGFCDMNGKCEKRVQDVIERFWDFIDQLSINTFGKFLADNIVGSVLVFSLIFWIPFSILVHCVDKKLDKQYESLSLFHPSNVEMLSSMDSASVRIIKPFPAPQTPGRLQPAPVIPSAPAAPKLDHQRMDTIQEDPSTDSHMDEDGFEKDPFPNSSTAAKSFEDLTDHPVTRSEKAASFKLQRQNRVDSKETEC

[3] = biological target: T2, Disintegrin and metalloproteinase domain-containing protein 17; assay type: functional, cell-based, THP-1
[4] = biological target: 72 kDa type IV collagenase (Homo sapiens, UniProt P08253)
72 kDa type IV collagenase, sequence (P08253 whole entry): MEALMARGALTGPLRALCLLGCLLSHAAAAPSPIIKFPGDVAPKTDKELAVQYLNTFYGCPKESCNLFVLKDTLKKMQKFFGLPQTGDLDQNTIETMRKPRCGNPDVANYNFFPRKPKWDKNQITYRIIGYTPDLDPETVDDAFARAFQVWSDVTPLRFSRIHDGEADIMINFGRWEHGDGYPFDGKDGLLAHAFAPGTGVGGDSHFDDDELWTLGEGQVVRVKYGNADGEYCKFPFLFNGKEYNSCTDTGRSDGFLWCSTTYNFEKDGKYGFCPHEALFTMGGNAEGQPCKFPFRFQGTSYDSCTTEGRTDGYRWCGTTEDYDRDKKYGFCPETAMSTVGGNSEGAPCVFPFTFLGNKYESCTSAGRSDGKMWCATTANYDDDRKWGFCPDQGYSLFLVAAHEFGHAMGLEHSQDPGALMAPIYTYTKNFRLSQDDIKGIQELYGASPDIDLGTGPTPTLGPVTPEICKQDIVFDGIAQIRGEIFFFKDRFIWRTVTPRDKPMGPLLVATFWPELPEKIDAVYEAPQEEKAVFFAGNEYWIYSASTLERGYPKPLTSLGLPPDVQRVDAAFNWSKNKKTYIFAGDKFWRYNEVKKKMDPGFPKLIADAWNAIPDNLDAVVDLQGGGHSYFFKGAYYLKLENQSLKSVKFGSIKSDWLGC

IC50 [1] [nM]	IC50 [2] [nM]	IC50 [3] [nM]	IC50 [4] [nM]	SMILES
> 10000	74	15000		COCCOc1cc(CCC[C@H]2C(=O)N[C@H](C(=O)c3ccccc3)Cc3ccc(cc3)OCCCC[C@@H]2C(=O)NO)cc(OC)c1
5.7				CC1(C)SCCN(S(=O)(=O)c2ccc(Oc3cccnc3)cc2)[C@H]1C(=O)NO
	3.4	440		CNC(=O)[C@@H]1Cc2ccc(cc2)OCCCC[C@H](C(=O)NO)[C@@H](CCCc2ccc(Cl)cc2)C(=O)N1
> 10000				COc1cc(CCC[C@H]2C(=O)N[C@H](C(=O)c3ccccc3)Cc3ccc(cc3)OCCCC[C@@H]2C(=O)NO)cc(OC)c1OC
> 10000	33	300		CNC(=O)[C@@H]1Cc2ccc(cc2)OCCCC[C@H](C(=O)NO)[C@@H](CCCc2cc(C(F)(F)F)cc(C(F)(F)F)c2)C(=O)N1
> 10000			430	COc1cc(Oc2ccc(S(=O)(=O)CC(C)C(=O)NO)cc2)cc(OC)c1OC (stereo not drawn)
26			21	COc1cc(Oc2ccc(S(=O)(=O)N3CCSC(C)(C)[C@@H]3C(=O)NO)cc2)cc(OC)c1OC
	87	> 5000		O=C(c1ccccc1)[C@@H]1Cc2ccc(cc2)OCCCC[C@H](C(=O)NO)[C@@H](CCCc2cc(Br)cc(Br)c2)C(=O)N1
> 10000	180		3400	COc1cc(Oc2ccc(SCC(C)C(=O)NO)cc2)cc(OC)c1OC (stereo not drawn)
	6.8	4100		CNC(=O)[C@@H]1Cc2ccc(cc2)OCCCC[C@H](C(=O)NO)[C@@H](CCCc2cc(OC)ccc2OC)C(=O)N1
> 1000				CNC(=O)[C@@H]1Cc2ccc(cc2)OCCCC[C@H](C(=O)NO)[C@@H](CCCc2cc(C)cc(C(C)C)c2)C(=O)N1
> 10000				COc1cc(CCC[C@H]2C(=O)N[C@H](C(=O)c3ccccc3)Cc3ccc(cc3)OCCCC[C@@H]2C(=O)NO)cc(OC)c1

From ChEMBL document CHEMBL1133837, “Discovery of selective hydroxamic acid inhibitors of tumor necrosis factor-alpha converting enzyme” (Bioorg Med Chem Lett, 2001)
